{"source": "patent US5356886A", "about": "“Antiviral phosphono-alken derivatives of purines” (Beecham Group p.l.c., priority 1990, dated 1994)", "type_in_all_cases": "cell-based", "key": {"[1]": {"test": "Drug-induced cytotoxicity for the MRC-5 cell monolayers in the CMV test", "settings": "human, mrc-5 cells, read-out: concentration at which cytotoxicity was noted", "procedure": "MRC-5 cells were grown to confluence in 24 well multi-dishes (well diameter=1.5 cm). The drained cell monolayers were each infected with approximately 50 infectious particles of cytomegalovirus (CMV; AD-169 strain) in 100 μl of phosphate-buffered saline. The virus was adsorbed for 1 hour at room temperature. After adsorption, residual inoculum was removed from each well and replaced with 1 ml of Eagle's MEM containing 10% heat inactivated foetal calf serum and 0.9% agarose (A37). Once the agarose had set, dilutions of the test compound, which had been prepared in Eagle's MEM (containing 10% heat-inactivated calf serum), were added, each well receiving 1 ml of liquid overlay. The test compound was diluted to give the following series of concentrations: 200, 60, 20, 6 . . . 0.06 μg/ml; final concentrations in the assay range, therefore, between 100 μg/ml and 0.03 μg/ml. The infected cultures were incubated at 37° C. in a humidified atmosphere containing 5% CO2 until plaques were clearly visible (about 12 days). The cultures are fixed in formol saline, the agarose overlays were carefully washed off, and then the cell monolayers were stained with carbol fuchsin. A stereo microscope was used to count plaques. […] In addition, the monolayers were examined for evidence of drug-induced cytotoxicity; the minimum concentration at which cytotoxicity occurs was recorded."}, "Visna Virus": {"tested_on": "Visna Virus", "test": "CPE Inhibition Test (Established Monolayer) for Lentiviruses, visna virus (strain K184) in sheep choroid plexus cells", "settings": "Visna-maedi virus; visna virus strain K184, SCP cells; read-out: MIC (minimum concentration giving complete protection of the cell monolayers)", "procedure": "3×10^4 sheep choroid plexus (SCP) cells were plated into individual wells of a 96 well microtitre plate in 100 μl of Eagle's MEM with Hanks' salts containing 10% heat inactivated foetal calf serum (FCS). When monolayers had become established (after 1 or 2 days growth) they were washed with 200 μl of maintenance medium (Eagle's MEM with Hanks' salts containing 0.5% FCS) and infected with 100 μl of visna virus (strain K184) in maintenance medium (30 TCID50/ml). Test samples were diluted with maintenance medium in further 96 well microtitre plates over the range 200-0.06 μg/ml by 3-fold dilution steps. 100 μl of the diluted samples was then transferred directly onto virus-infected monolayers (final concentration range therefore 100-0.03 μg/ml) and […] containing 5% CO2 until virus-induced CPE was maximal in the untreated virus-infected controls (usually 12-14 days). The plates were fixed with formal saline and stained with crystal violet. Virus-induced CPE was then scored microscopically and the minimum concentration of sample giving complete protection of the cell monolayers (MIC) determined."}, "HSV-1": {"tested_on": "HSV-1", "test": "Plaque Reduction Test for Herpes Simplex Virus 1 (strain SC16) in MRC-5 cells", "settings": "Human alphaherpesvirus 1, MRC5", "procedure": "MRC-5 cells were grown to confluence in 24 well multi-dishes (well diameter=1.5 cm). The drained cell monolayers were each infected with approximately 50 infectious particles of herpes simplex virus 1 (HSV-1; strain SC16) or herpes simplex virus 2 (HSV-2; strain MS) in 100 μl of phosphate-buffered saline. The virus was adsorbed for 1 hour at room temperature. After adsorption, residual inoculum was removed from each well and replaced with 0.5 ml of Eagle's MEM containing 5% newborn calf serum and 0.9% agarose (A37). Once the agarose had set, dilutions of the test compound, which had been prepared in Eagle's MEM (containing 5% newborn calf serum), were added, each well receiving 0.5 ml of liquid overlay. The test compound was diluted to give the following series of concentrations: 200, 60, 20, 6 . . . 0.06 μg/ml; final concentrations in the assay ranged, therefore, between 100 μg/ml and 0.03 μg/ml. The infected cultures were incubated at 37° C. in a humidified atmosphere of 5% CO2 until plaques were clearly visible (usually 1 day).\nCultures from 1 and 2 were fixed in formal saline, the agarose overlays were carefully washed off, and then the cell monolayers were stained with carbol fuchsin. A stereo microscope was used to count plaques. The IC50 (concentration of drug which inhibits the number of plaques formed by 50% relative to the number of plaques observed in virus control monolayers) of the test compound was calculated. In addition, the monolayers were examined for evidence of drug-induced cytotoxicity; the minimum concentration at which cytotoxicity occurs was recorded."}, "[2]": {"test": "Cell cytotoxicity test (MTT) in peripheral human lymphocytes", "procedure": "Peripheral human lymphocytes were isolated by density gradient centrifugation from blood donations of healthy volunteers. The `buffy coat`-fractions of these donations were provided by blood donation centres.\nThe buffy coat was diluted 1:1 with sterile phosphate buffered saline (PBS; 50 mM sodium phosphate, pH 7.4, 0,9% sodium chloride) and subsequently layered over Ficoll. Following centrifugation (30 minutes at 400×g) the supernatant was discarded and the interphase containing the lymphocytes was recovered. The lymphocytes were washed two times in PBS and were resuspended finally in cell culture medium.\nA viability staining was performed by means of the trypan blue dye-exclusion method. The concentration of cells in the suspension and the percentage of viable cells were calculated. […]\nThe lymphocytes were cultivated in an incubator with a humidified atmosphere and 5% CO2 for 48 to 64 hours at 37° C. Following this incubation period, cells were harvested by centrifugation, resuspended in cell culture medium and counted. […]\nSurvival and proliferation of the lymphocytes grown in the presence of the compound were measured by a quantitative colorimetric assay. […] The amount of product which is a function of cell number and metabolic cellular activity was quantified photometrically. By this assay, potential cytotoxic and cytostatic effects of compounds towards lymphocytes were detected precisely. […]"}}}
{"smiles": "Nc1nc2c(ncn2OCC/C=C/P(=O)(O)O)c(=O)[nH]1", "note": "[Example 1, (E)-9-(4-phosphonobut-3-enyloxy)guanine]", "values": [{"measurement": "MCC", "setting": "[1]", "result": 10, "unit": "µg/mL"}, {"measurement": "MIC", "setting": "Visna Virus", "result": "< 0.003", "unit": "µg/mL"}, {"measurement": "IC50", "setting": "HSV-1", "result": "< 3", "unit": "µg/mL"}, {"measurement": "CC50 at 96 h", "setting": "[2]", "result": 1, "unit": "µM"}, {"measurement": "cytotoxicity at 0.1 µM", "setting": "[2]; at 0.1 μM, read-out: Slight toxicity (inhibition)", "result": 18, "unit": "%"}]}
